Assay results reported in US6143724A, “2-fluorofucosyl-N-aroylglucosamine derivatives, intermediates, therefor, and processes for producing these” (Daikin Industries, Ltd., priority 1997, dated 2000).
“Also recorded” adds a separate entry of the source.

How the values were obtained:
α-fucosidase = experiment: Evaluation of metabolic stability of sialyl Lewis X derivatives to α-fucosidase (TLC spot densitometry); format: in vitro ADME; conditions: for Spot Area: 28° C.
Protocol: The metabolic stability of various sialyl Lewis X derivatives to α-fucosidase was assayed. The various sialyl Lewis X derivatives which were used in Example [(2F-Fuc-t-Bu) SLcXOSE], Comparative Example 1 (SLeX Ganglioside), and Comparative Example 2 [(2F-Fuc) SLeX Ganglioside] are shown in the following structural formulas. Herein, the compound used in the present Example is the compound represented by said structural formula (β) obtained in said Example 11. [drawing 48] After […] of each sialyl Lewis X derivative was dissolved in 0.1 mL of dist. water, 0.1 mL of ammonium sulfate suspension of α-fucosidase (made by Wako Chemicals: 2 units or more/mg protein) was added to this solution at 28° C., then the reaction solution was charged on a silica gel TLC plate 5715 (made by Merck Company) at every reaction time course. After developing up to 2 cm using developing solvents (n-butanol:acetic acid:water=8:5:4), this was soaked in an aqueous solution of molybdenum phosphate/phosphoric acid/sulfuric acid mixture, and heated to color. The Rf values (moving ratio) on the TLC plate of products decomposed by α-fucosidase and each sialyl Lewis X derivative (substrate) were as follows.
Further, it was confirmed from the mass spectrum that each sialyl Lewis X derivative is decomposed by α-fucosidase, and the corresponding derivatives from which the fucose moiety was removed were produced as respective decomposed products. Further, as shown in following Table 1, the residual rates of the individual sialyl Lewis X derivatives were calculated from each spot area (hereinafter, sometimes referred to merely as the area) after each reaction time course as follows. Herein, each area was measured using a densitometer (software: VILBER LOURMAT BIOID V 6.31a): Residual rate of sialyl Lewis X derivative=(substrate area)/(total area of substrate area plus decomposed product area).

P selectin = molecular target: T1, P selectin (Homo sapiens, UniProt P16109); conditions: H. Kondo et al., J. Med. Chem. 39, 1339 (1996); cited from earlier work
T1 sequence (P16109 42-830): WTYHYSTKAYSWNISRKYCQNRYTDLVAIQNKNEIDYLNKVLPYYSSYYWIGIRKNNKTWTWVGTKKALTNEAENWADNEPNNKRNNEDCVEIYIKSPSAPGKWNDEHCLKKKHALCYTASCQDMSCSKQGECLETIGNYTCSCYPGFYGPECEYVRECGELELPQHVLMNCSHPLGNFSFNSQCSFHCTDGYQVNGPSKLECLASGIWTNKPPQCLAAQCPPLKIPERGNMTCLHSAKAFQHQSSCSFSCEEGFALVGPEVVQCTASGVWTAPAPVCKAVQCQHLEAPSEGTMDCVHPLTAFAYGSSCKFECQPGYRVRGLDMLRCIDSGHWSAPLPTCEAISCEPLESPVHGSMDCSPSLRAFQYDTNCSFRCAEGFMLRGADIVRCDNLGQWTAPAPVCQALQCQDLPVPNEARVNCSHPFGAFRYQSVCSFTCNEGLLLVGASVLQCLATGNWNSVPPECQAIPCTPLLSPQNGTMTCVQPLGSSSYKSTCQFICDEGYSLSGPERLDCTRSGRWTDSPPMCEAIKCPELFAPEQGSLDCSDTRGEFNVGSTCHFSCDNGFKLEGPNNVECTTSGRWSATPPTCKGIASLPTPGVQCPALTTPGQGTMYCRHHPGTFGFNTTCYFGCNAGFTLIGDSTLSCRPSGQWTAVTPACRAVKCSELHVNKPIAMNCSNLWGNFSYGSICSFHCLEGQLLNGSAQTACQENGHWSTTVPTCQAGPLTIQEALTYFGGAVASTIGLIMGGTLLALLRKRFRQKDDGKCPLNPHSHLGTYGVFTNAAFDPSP

[1] = tested on: acute inflammation of the lung induced by cobra toxin; conditions: rats, Mulligan et al., Nature 364, 149 (1993); cited from earlier work
selectins = conditions: cited from earlier work
[2] = time course 0 min after addition of α-fucosidase
[3] = time course 0.5 min after addition of α-fucosidase, * = color on the TLC completely disappeared
[4] = time course 1.0 min after addition of α-fucosidase

SMILES	stability against / resistance to decomposition by α-fucosidase (in words, from FIG. 1) (α-fucosidase)	Spot Area (α-fucosidase; [2])	Spot Area (α-fucosidase; [3])	Spot Area (α-fucosidase; [4])	also measured
CCCCCCCCCCCCC/C=C/[C@@H](O)[C@H](CO[C@@H]1O[C@H](CO)[C@@H](O[C@@H]2O[C@H](CO)[C@H](O)[C@H](O[C@@H]3O[C@H](CO)[C@@H](O[C@@H]4O[C@H](CO)[C@H](O)[C@H](O[C@]5(C(=O)O)C[C@H](O)[C@@H](NC(C)=O)[C@H]([C@H](O)[C@H](O)CO)O5)[C@H]4O)[C@H](O[C@@H]4O[C@@H](C)[C@@H](O)[C@@H](O)[C@@H]4O)[C@H]3NC(C)=O)[C@H]2O)[C@H](O)[C@H]1O)NC(=O)CCCCCCCCCCCCCCCCC [Comparative Example 1]	rapid decomposition	1.0 cm^2	0.0 cm^2	–	–
CC(=O)NC1COC(CO)C(OC2OC(CO)C(O)C(OC3(C(=O)O)CC(O)C(NC(C)=O)C(C(O)C(O)CO)O3)C2O)C1OC1OC(C)C(O)C(O)C1O (centres unmarked) [structural formula (V)]	–	–	–	–	adhesion-inhibitory activity to P selectin relative to the sialyl Lewis X glycoside of Structural Formula (III) (P selectin): 20 times
CC(=O)NC1C(O)CC(OC2C(O)C(CO)OC(OC3C(CO)OC(O)C(NC(C)=O)C3OC3OC(C)C(O)C(O)C3O)C2O)(C(=O)O)OC1C(O)C(O)CO (centres unmarked) [structural formula (III)]	–	–	–	–	acute inflammation of the lung [1]: reduced
CCCCCCCCCCCCC/C=C/[C@@H](O)[C@H](CO[C@@H]1O[C@H](CO)[C@@H](O[C@@H]2O[C@H](CO)[C@H](O)[C@H](O[C@@H]3O[C@H](CO)[C@@H](O[C@@H]4O[C@H](CO)[C@H](O)[C@H](O[C@]5(C(=O)O)C[C@H](O)[C@@H](NC(C)=O)[C@H]([C@H](O)[C@H](O)CO)O5)[C@H]4O)[C@H](O[C@@H]4O[C@@H](C)[C@@H](O)[C@@H](O)[C@@H]4F)[C@H]3NC(C)=O)[C@H]2O)[C@H](O)[C@H]1O)NC(=O)CCCCCCCCCCCCCCCCCCCCCCC [Comparative Example 2]	weak resistance to decomposition	1.0 cm^2	0.36 cm^2	0.30 cm^2	–
CCCCCCCCCCCCCCC(CCCCCCCCCCCCCC)CO[C@@H]1O[C@H](CO)[C@@H](O[C@@H]2O[C@H](CO)[C@H](O)[C@H](OS(=O)(=O)O)[C@H]2O)[C@H](O[C@@H]2O[C@@H](C)[C@@H](O)[C@@H](O)[C@@H]2O)[C@H]1NC(C)=O [GSC-150]	–	–	–	–	selectin adhesion-inhibitory activity (in words) (selectins): powerful selectin blocker
CC(=O)NC1C(O)CC(OC2C(O)C(CO)OC(OC3C(CO)OC(OC4C(O)C(CO)OC(OC5C(CO)OC(OCC[Si](C)(C)C)C(O)C5O)C4O)C(NC(=O)c4ccc(C(C)(C)C)cc4)C3OC3OC(C)C(O)C(O)C3F)C2O)(C(=O)O)OC1C(O)C(O)CO [Example, 2-(trimethylsilyl)ethyl O-(5-acetamide-3,5-dideoxy-D-glycero-α-D-galacto-2-nunolopyranosylonic acid)-(2→3)-O-β-D-galactopyranosyl-(1→4)-O-[(2-deoxy-2-fluoro-α-L-fucopyranosyl)-(1→3)]-O-[(2-deoxy-2-(4-t-butylbenzamide)-β-D-glucopyranosyl)]-(1→3)-(O-β-D-galactopyranosyl)-(1→4)-β-D-glucopyranoside]	excellent in stability against α-fucosidase; also recorded: strongly resistant to decomposition reaction	1.0 cm^2	–	0.73 cm^2	Spot Area (α-fucosidase; time course 2.0 min after addition of α-fucosidase): 0.44 cm^2
